From patent publication US7091185B2, “Periodic antimicrobial peptides” (Dow Global Technologies Inc., priority 2003, dated 2006)
Like-named read-outs stand apart in the source and are kept apart here.

Experiments:
E. coli ATCC 2592 = conditions: ATCC 2592
P. aeruginosa ATCC 10145 = conditions: ATCC 10145
[1] = tested on: S. aureus (methicillin resistant) ATCC 33591; conditions: ATCC 33591
C. albicans 10231 = type: cell-based; conditions: 10231
Protocol: (§1) The MIC and IC50 values were determined by a broth microdilution method according to guidelines of the National Committee for Clinical Laboratory Standard as follows: In 96-well tissue culture plates, a fixed volume of bacterial suspension in 2× broth (as defined below) was added to the mixtures or individual compounds dispensed at concentrations varying from 1,000 to 1 μg/ml derived from serial two-fold dilutions in sterile water. The bacteria tested were P. aeruginosa American Type Culture Collection Number (ATCC) 10145, E. coli ATCC 2592, and S. aureus (methicillin reseistant) ATTC 33591.
(§2) The plates were incubated overnight, and the relative percent growth determined by optical density at 620 nm (OD620) using a TITERTEK MULTISKAN PLUS™. […] IC50 values were calculated using a sigmoidal curve fitting software program (GRAPHPAD,™ ISI Software,™ San Diego, Calif.). All samples were tested in duplicate and each assay was repeated at least twice. In the following table, KFAK is the repeat unit and multimers of KFAK were tested. IC50 and MIC are reported in μg/ml.
(§3) Because the antibacterial activity of the periodic peptides was so promising, further experiments were performed to determine if the periodic peptides also had antifungal activity. The experimental design was similar to that above, with accommodation made for fungal growth requirements, including the use of Sabouraud Dextrose Broth (SDB) and Sabouraud Dextrose Agar (SDA) slants.

Cr. Neoformans 32045 = type: cell-based
Protocol: as §1, §2, §3

Red blood cell toxicity = type: cell-based; conditions: red blood cells (RBC)
Red blood cells (RBC) = assay: Red blood cell toxicity; type: cell-based
HeLa cell line = assay: HeLa MTS cellular reduction toxicity assay; type: cell-based; conditions: for TX50: 24 h, MTS
Protocol: The RBC protocol was from Blondelle (2000) and is described generally as follows: The toxicity toward the HeLa cell line was determined using a MTS (3-(4-5-dimethylthiazol-2-yl)-5-(3carboxymethoxyphenyl)-2-(4-sulfophenyl)-2H-tetrazolium, sodium salt) cellular reduction assay. MTS (2 mg/mL) was prepared in Dulbecco PBS (pH 7.35), filtered, aliquoted and stored at minus 20° C. In 96 well flat bottomed plates, cell suspensions (250 μL of 6×10^4 cell/mL in each well) were incubated for 48 h at 37° C. (5% CO2 incubator). The peptides (50 μL) were then added to the cell monolayer (following aspiration of the media from each well and addition of 50 μL of Dulbecco's Modified Eagles Medium) at varying concentrations derived from serial 2-fold dilutions, and the plates incubated for 24 h at 37° C. (5% CO2 incubator). Proliferation was then determined by adding a solution of phenazine methosulfate (PMS: 0.92 mg/mL in DPBS) to MTS at a 1:20 ration just prior to the assay. Twenty microliters MTS-PMS solution were added to each well and the plates incubated for 1 h at 37° C. (5% CO2 incubator). The relative percent toxicity was determined by comparing the absorbance at 490 nm of each peptide to the absorbance of cells without peptide. The TX50 (concentration required for 50% toxicity) was calculated using a sigmoidal curve fitting software (Graphpad Prism).

P. aeruginosa ATCC 15442 = assay: HMARQ biocidal kill activity; type: cell-based; conditions: P. aeruginosa ATCC 15442 (gram−)
Procedure, shortened: (§4)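 Inoculated sample matrix (200–300 μL) added to biocide in 96-well blocks alongside untreated controls; for kill-time runs organisms added after biocide. Viable counts by MPN serial 1:10 dilution in TSB with 50 μM resazurin indicator; values are ppm (μg/mL) giving 3.5 log kill versus untreated at 15 min or 24 h.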

Staph. aureus ATCC 6538 = assay: HMARQ biocidal kill activity; type: cell-based; conditions: Staph. aureus ATCC 6538 (gram+)
Procedure, shortened: as §4

[2] = RBCs, concentration required for 50% toxicity, read-out: TX50

Substance | IC50 (E. coli ATCC 2592) [µg/mL] | MIC (E. coli ATCC 2592) [µg/mL] | IC50 (P. aeruginosa ATCC 10145) [µg/mL] | MIC (P. aeruginosa ATCC 10145) [µg/mL] | IC50 [1] [µg/mL] | MIC [1] [µg/mL] | IC50 (C. albicans 10231) [µg/mL] | MIC (C. albicans 10231) [µg/mL] | IC50 (Cr. Neoformans 32045) [µg/mL] | MIC (Cr. Neoformans 32045) [µg/mL] | HC50 at 24 h (Red blood cell toxicity; [2]) [µg/mL] | % kill at 250 μg/ml (Red blood cells (RBC)) [%] | % kill at 500 μg/ml (HeLa cell line) [%] | TX50 (HeLa cell line) [µg/mL] | ppm needed for 3.5 log kill at 15 min (P. aeruginosa ATCC 15442) [ppm] | ppm needed for 3.5 log kill at 24 hr (P. aeruginosa ATCC 15442) [ppm] | ppm needed for 3.5 log kill at 15 min (Staph. aureus ATCC 6538) [ppm] | ppm needed for 3.5 log kill at 24 hr (Staph. aureus ATCC 6538) [ppm] | HC50 at 24 h (Red blood cell toxicity) [µg/mL]
H-FKAFKAFKAFKAFKAFKAFKAFKAFKAFKA-OH [FKA (10), FKA FKA FKA FKA FKA FKA FKA FKA FKA FKA] | 9 | 31 to 62 | 27 | 32 | 12 | 31 to 62 | 182 | 250 to 500 | 20 | 32 to 62 | > 500 | 51 | 15.0 | 234 | 8 | 16 | 8 | 8 | 
H-KFAKKFAKKFAKKFAKKFAKKFAKKFAKKFAK-OH [KFAK (8), KFAK KFAK KFAK KFAK KFAK KFAK KFAK KFAK] | 12 | 16 to 32 | 19 | 20 | 40 | 125 to 250 | 105 | 125 to 250 | 4.1 | 8 to 16 |  | 48 | 18.2 | 249 | 31 | 31 | >500 | 8 | > 500
H-KFKKFKKFKKFKKFKKFKKFKKFK-OH [KFK (8), KEK KFK KFK KFK KFK KFK KFK KFK] | 20 | 32 to 62 | 145 | 250 | 72 | >250 | 113 | 125 to 250 | 25 | 40 to 62 | > 500 | −6 | 84.2 | >500 | >500 | >125 | >500 | 500 | 
H-KFKKFKKFKKFKKFKKFKKFKKFKKFKKFK-OH [KFK (10), KFK KFK KFK KFK KFK KFK KEK KFK KFK KFK] | 10 | 12 to 16 | 31 | 62 | 59 | >250 | 104 | 125 to 250 | 30 | 40 to 62 | > 500 | 3 | 56.8 | >500 | 8 | 8 | 4 | 500 | 
H-KKAKKKAKKKAKKKAKKKAKKKAKKKAK-OH [KKAK (7), KKAK KKAK KKAK KKAK KKAK KKAK KKAK] | 26 | 31 to 62 | 99 | 125 | 60 |  | >500 | >500 | 28 | >63 | > 500 | −6 | >87.9 | >500 | 16 | 16 | >500 | 125 | 
H-KKFAKKFAKKFAKKFAKKFAKKFA-OH [KKFA (6), KKFA KKFA KKFA KKFA KKFA KKFA] | 7 | 16 to 32 | 33 | 62 | 136 | >250 | 107 | 125 to 250 | 12 | 32 to 62 |  | 2 | 76.4 | >500 | >500 | 8 | >500 | 63 | > 500
H-LKKLLKKLLKKLLKKLLKKL-OH [LKKL (5), LKKL LKKL LKKL LKKL LKKL] | 49 | 62 to 125 | 27 | 62 | 69 | >250 | 211 | >500 | 55 | 62 to 125 | 9 | 100 | −0.7 | 31 | >500 | 8 | >500 | 125 | 
